Data from EP2711369A1, “Liposomes containing tetraether lipid derivatives” (Bernina Plus GmbH, priority 2012, dated 2014).

Test system: Brattleboro rats
Test: In vivo testing of liposomes: urine excretion after oral DDAVP
Details: oral by gavage, DDAVP 10 µg/kg body weight
Protocol: Liposomes composed of STEL-PC and cholesterol in a ratio of 1 : 2.5 with DDVAP encapsulated as active agent were studied in the Brattleboro model.
Treatment with exogenous vasopression restores normal urinary function and exerts a temporal antidiuretic effect.
Brattleboro rats were hold singly in metabolic cages with free access to tap water. DDAVP was administered orally by gavage at a dose of 10 µg/kg body weight either as free compound or in various formulations. Urine excretion was measured over 24 h in 1 h intervals using a fraction collector.

Substance: 1-desamino-8-D-arginine vasopressin [free DDAVP]
- inhibition of urine excretion (duration): approximately 2 hours
